Reference: ChEMBL document CHEMBL1201862, “PubChem BioAssay data set” (2004)
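Values below derive from 48-hour exposures of cells grown in 96-well plates, with endpoints linearly interpolated between the two concentrations bracketing the appropriate inhibition level. GI50 is the concentration that inhibits growth by half.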 Active and inactive are the calls of the source. No stated cut-off is given here; in the data, active = GI50 up to about 1.1 µM and inactive = higher.

Assays:
Experiment in all cases: NCI tumour cell line growth inhibition, 48 h
786-0 = system: 786-0
UO-31 = system: UO-31
SK-MEL-5 = system: SK-MEL-5
DU-145 = system: DU-145
HT-29 = system: HT-29
OVCAR-3 = system: OVCAR-3
UACC-62 = system: UACC-62
K562 = system: K562
T47D = system: T47D
SNB-75 = system: SNB-75
A549 = system: A549
CCRF-CEM = system: CCRF-CEM
NCI-H460 = system: NCI-H460
PC-3 = system: PC-3
MCF7 = system: MCF7
MOLT-4 = system: MOLT-4
ACHN = system: ACHN
Malme-3M = system: Malme-3M
UACC-257 = system: UACC-257
TK-10 = system: TK-10

Measured: GI50

Cc1ccc(OCC2OC(C#N)C(Oc3ccc(C)cc3)C2Oc2ccc(C)cc2)cc1 (stereo not drawn)
inactive: 786-0 > 100 µM | UO-31 > 100 µM | SK-MEL-5 > 100 µM | DU-145 > 100 µM | HT-29 > 100 µM | OVCAR-3 > 100 µM | UACC-62 > 100 µM | K562 > 100 µM | T47D > 100 µM | SNB-75 6.79 µM | A549 > 100 µM | CCRF-CEM > 100 µM | NCI-H460 > 100 µM | PC-3 > 100 µM | MCF7 > 100 µM | MOLT-4 > 100 µM

CCOC(=O)c1c(SCc2ccccc2)nc2c3ccccc3ccn12
inactive: 786-0 > 100 µM | SK-MEL-5 > 100 µM | DU-145 > 100 µM | HT-29 > 100 µM | ACHN 24 µM | Malme-3M 63.7 µM | UACC-62 > 100 µM | K562 > 100 µM | T47D > 100 µM | SNB-75 25.9 µM | A549 > 100 µM | UACC-257 > 100 µM | CCRF-CEM > 100 µM | NCI-H460 55.6 µM | PC-3 > 100 µM | MCF7 > 100 µM | MOLT-4 > 100 µM

CC1(C)CC(C2=NCCO2)CC(C)(C)N1
inactive: TK-10 > 100 µM | 786-0 > 100 µM | UO-31 > 100 µM | SK-MEL-5 > 100 µM | DU-145 > 100 µM | HT-29 > 100 µM | ACHN > 100 µM | OVCAR-3 > 100 µM | Malme-3M > 100 µM | UACC-62 > 100 µM | K562 > 100 µM | T47D > 100 µM | SNB-75 > 100 µM | A549 > 100 µM | UACC-257 > 100 µM | CCRF-CEM > 100 µM | PC-3 > 100 µM | MCF7 27.7 µM | MOLT-4 > 100 µM

Cc1ccc(S(=O)(=O)n2cc(-c3cc(C(F)(F)F)ccn3)c3cc(Br)ccc32)cc1
inactive: TK-10 18.7 µM | 786-0 13.9 µM | UO-31 11.2 µM | SK-MEL-5 24.3 µM | DU-145 17.9 µM | HT-29 49.1 µM | ACHN 11.4 µM | OVCAR-3 12.2 µM | Malme-3M 20.7 µM | UACC-62 16.1 µM | K562 > 100 µM | T47D 1.55 µM | A549 21.1 µM | UACC-257 27 µM | CCRF-CEM > 100 µM | NCI-H460 36.5 µM | PC-3 18.2 µM | MCF7 5.26 µM | MOLT-4 > 100 µM

CC(=O)OCCCC(NC(=O)OC(C)(C)C)C(=O)NC(CCCOC(C)=O)C(=O)NC(Cc1ccc([N+](=O)[O-])cc1)C(=O)NCC(=O)OCc1ccccc1 (stereo not drawn)
inactive: TK-10 18.5 µM | 786-0 18 µM | UO-31 16.1 µM | SK-MEL-5 16.4 µM | DU-145 16.4 µM | HT-29 17.9 µM | ACHN 17.4 µM | OVCAR-3 16.5 µM | Malme-3M 19.9 µM | UACC-62 15.2 µM | K562 23.7 µM | T47D 18 µM | A549 20.3 µM | UACC-257 15.3 µM | CCRF-CEM 29.7 µM | NCI-H460 15.6 µM | PC-3 17.2 µM | MCF7 17.9 µM | MOLT-4 37.6 µM

O=C(N/N=C(/c1ccccc1)C(F)(F)F)c1ccncc1
inactive: TK-10 > 100 µM | UO-31 > 100 µM | SK-MEL-5 > 100 µM | DU-145 > 100 µM | HT-29 > 100 µM | OVCAR-3 > 100 µM | Malme-3M > 100 µM | UACC-62 > 100 µM | K562 35.1 µM | T47D > 100 µM | SNB-75 > 100 µM | CCRF-CEM 76 µM | NCI-H460 > 100 µM | PC-3 > 100 µM | MCF7 > 100 µM | MOLT-4 64.3 µM

CCCCn1c(-c2ccc([N+](=O)[O-])cc2)cs/c1=N/N=C1\C(=O)Nc2ccc(Br)cc21
inactive: TK-10 12.3 µM | 786-0 11.8 µM | UO-31 18.6 µM | SK-MEL-5 14.1 µM | DU-145 13.8 µM | HT-29 13.3 µM | ACHN 12.9 µM | OVCAR-3 15.5 µM | Malme-3M 28.3 µM | UACC-62 19.6 µM | K562 15.7 µM | T47D 7.11 µM | SNB-75 20.3 µM | A549 15.9 µM | UACC-257 18.2 µM | CCRF-CEM 17.8 µM | NCI-H460 14.6 µM | MCF7 3.28 µM | MOLT-4 7.43 µM

CC(C)(CC1(C)NC(=O)NC1=O)OCc1ccccc1 (stereo not drawn)
inactive: TK-10 > 100 µM | 786-0 > 100 µM | UO-31 > 100 µM | SK-MEL-5 > 100 µM | DU-145 > 100 µM | HT-29 > 100 µM | ACHN > 100 µM | OVCAR-3 > 100 µM | Malme-3M > 100 µM | UACC-62 > 100 µM | K562 > 100 µM | T47D > 100 µM | SNB-75 > 100 µM | A549 > 100 µM | UACC-257 > 100 µM | NCI-H460 > 100 µM | PC-3 > 100 µM | MCF7 > 100 µM
